The text below walks through data of ChEMBL document CHEMBL1201862, “PubChem BioAssay data set” (2004).

Active and inactive are the calls of the source.

Assay [1] concerns the target Ubiquitin carboxyl-terminal hydrolase BAP1 (Homo sapiens, UniProt Q92560). Put plainly: BAP1 deubiquitinase inhibitors, dose response, biochemical (AID 714). It counts as functional.
The target of assay [2] is NAD-dependent protein deacylase sirtuin-5, mitochondrial (Homo sapiens, UniProt Q9NXA8). Put plainly: SIRT5 desuccinylase inhibitors, dose response, biochemical, fluorescence imaging, cherry-pick, set 5 (AID 720591).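 Note: desuccinylation of succinyl peptide AMC substrate read as fluorescence after trypsin release; potency of inhibitors that lower fluorescence and may act on trypsin instead.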
The target in assay [3] is Kallikrein-7 (Homo sapiens, UniProt P49862). In words: Fluorescence Intensity-based biochemical primary high throughput dose response assay to identify activators of kallikrein-7 (K7) zymogen.
Assay [4] addresses T1, Estrogen receptor beta (Homo sapiens, UniProt Q92731).
For assay [5], the target named is T2, Low molecular weight phosphotyrosine protein phosphatase (Homo sapiens, UniProt P24666).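 Note: Dose-response confirmation assay measuring inhibition of LMPTP enzyme activity by fluorescence intensity read-out.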
T2 sequence (P24666 whole entry): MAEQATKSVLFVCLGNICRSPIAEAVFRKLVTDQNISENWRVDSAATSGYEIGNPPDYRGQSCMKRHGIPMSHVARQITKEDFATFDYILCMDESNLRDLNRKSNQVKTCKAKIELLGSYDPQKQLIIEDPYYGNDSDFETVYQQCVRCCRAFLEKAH
It counts as functional. Particulars: read-out: IC50_Mean.

The nature of assay [6]: Artemis endonuclease inhibitor potency, dose response, biochemical, fluorescence intensity (AID 720701).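 Note: Artemis endonuclease enzyme.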 It counts as functional.
Assay [7] deals with T3, RNA-binding protein pos-1 (Caenorhabditis elegans, UniProt G5EF15).
T3 sequence (G5EF15 whole entry): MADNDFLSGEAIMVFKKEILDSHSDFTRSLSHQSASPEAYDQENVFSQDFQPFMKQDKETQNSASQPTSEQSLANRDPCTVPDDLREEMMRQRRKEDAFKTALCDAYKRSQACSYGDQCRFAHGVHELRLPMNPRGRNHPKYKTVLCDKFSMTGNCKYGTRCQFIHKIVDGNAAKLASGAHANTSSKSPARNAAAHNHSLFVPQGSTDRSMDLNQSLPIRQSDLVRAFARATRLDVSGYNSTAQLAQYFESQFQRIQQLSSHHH
In words: inhibitors of POS-1/mex-3 RNA binding, dose response, biochemical, fluorescence polarization (AID 1964). (Polarisation of emitted light reports the rotation of a fluorescent probe.)

The target of assay [8] is T4, Bcl-2-like protein 10 (Homo sapiens, UniProt Q9HD36).
T4 sequence (Q9HD36 whole entry): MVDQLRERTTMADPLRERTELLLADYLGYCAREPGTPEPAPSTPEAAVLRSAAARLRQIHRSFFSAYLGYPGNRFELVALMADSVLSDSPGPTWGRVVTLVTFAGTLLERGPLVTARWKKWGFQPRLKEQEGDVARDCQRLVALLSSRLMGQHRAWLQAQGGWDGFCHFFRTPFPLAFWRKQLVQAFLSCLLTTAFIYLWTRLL
Put plainly: displacers of TR3 peptide from Bcl-B, primary screen, selectivity assay for Bfl-1 inhibitor project, biochemical, fluorescence polarization, FITC-TR3 peptide (AID 748).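 Note: fluorescence polarization from a fluorescein-labelled TR3 peptide binding purified Bcl-B.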

The target in assay [9] is T5, Zinc finger protein mex-5 (Caenorhabditis elegans, UniProt Q9XUB2).
T5 sequence (Q9XUB2 whole entry): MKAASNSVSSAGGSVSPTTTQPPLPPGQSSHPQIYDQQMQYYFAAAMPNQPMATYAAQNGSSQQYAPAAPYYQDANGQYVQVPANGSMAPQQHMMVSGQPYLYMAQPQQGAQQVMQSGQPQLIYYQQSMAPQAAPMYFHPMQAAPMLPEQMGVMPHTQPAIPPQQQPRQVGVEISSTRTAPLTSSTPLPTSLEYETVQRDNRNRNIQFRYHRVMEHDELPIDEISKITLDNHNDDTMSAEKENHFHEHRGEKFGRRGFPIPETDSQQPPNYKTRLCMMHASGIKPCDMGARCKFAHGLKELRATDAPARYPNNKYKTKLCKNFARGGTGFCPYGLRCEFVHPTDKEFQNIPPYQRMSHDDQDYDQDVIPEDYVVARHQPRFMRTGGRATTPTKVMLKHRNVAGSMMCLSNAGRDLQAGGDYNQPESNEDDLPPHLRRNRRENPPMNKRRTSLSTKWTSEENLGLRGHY
Put plainly: MEX-5/TCR-2 RNA interaction inhibitors, dose response, biochemical, C. elegans, fluorescence polarization (AID 1960).

Assay [10] addresses Large T antigen (Simian virus 40, UniProt P03070). It counts as functional, Betapolyomavirus macacae.
The target in assay [11] is T1, Estrogen receptor beta. In words: ERβ–SRC-3 coactivator interaction inhibitors, confirmation, orthogonal assay, biochemical, ELISA, streptavidin-HRP readout (AID 1060). For orientation: ELISA stands for enzyme-linked immunosorbent assay.
Assay [12] concerns the target Genome polyprotein (dengue virus type 2, UniProt P29990). Put plainly: Dengue-2 NS5 methyltransferase inhibitors, primary screen, biochemical, confirmation dose response (AID 588689). The format is functional.
Assay [13] has as its target T6, Polyadenylate-binding protein 1 (Homo sapiens, UniProt P11940). Put plainly: PABP1 MLLE–PAM2 interaction inhibitors, dose response, miRNA deadenylation inhibitor project, biochemical, fluorescence polarization, Cy5-PAM2 peptide, secondary (AID 602260). The format is functional. Particulars: read-out: IC50_Mean.
The target of assay [14] is T6, Polyadenylate-binding protein 1. In words: PABP1 MLLE–PAM2 binding inhibitor potency, dose response, biochemical, fluorescence polarization, FITC-PAM2 peptide (AID 602259). The format is functional. Particulars: read-out: IC50_Mean.
Assay [15] concerns the target Glutathione-S-transferase (Schistosoma japonicum, UniProt Q26513). In words: biotin-GST/anti-GST TR-FRET signal inhibitors, dose response, artefact control for Vif-APOBEC3G degradation inhibitor project, biochemical (AID 1117362). It counts as functional.
The subject of assay [16] is Streptococcus sp. 'group A'. In words: growth inhibition of control SK(-) GAS strain, dose response, counter-screen for streptokinase expression inhibitor project, luminescence, kanamycin, BacTiterGlo, confirmation (AID 1900). The format is functional, organism-based. A general note: The purpose of a counterscreen is to sort out artefacts and off-target activity.
The nature of assay [17]: inhibitors of intracellular T. cruzi replication, confirmation, NIH3T3 host cells, beta-gal luminescence (AID 2044).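 Note: intracellular parasites grown in NIH/3T3 mouse fibroblasts as host cells; luminescent beta-galactosidase reporter signal from transgenic T. cruzi replicating inside host cells; inhibitors lower the luminescence signal.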 It counts as functional, cell-based.
Assay [18] can be described thus: cytotoxicity toward NIH3T3 fibroblasts, dose response, counter-screen, cell-based, ATP luminescence, mouse fibroblasts (AID 2010).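 Note: cells exposed to compound for about 90 hours before reading.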 The format is functional.
In assay [19] the test system is Streptococcus. Put plainly: Group A Streptococcus viability loss, dose response, counter-screen for streptokinase expression inhibitor project, luminescence, BacTiterGlo (AID 1915).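 Note: potency for reduction of bacterial viability or growth.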 It counts as functional, organism-based.
A short description of assay [20]: Vero cell cytotoxicity, dose response, cytotoxicity control for Vif-APOBEC3G degradation inhibitor project, Vero cells (AID 1117358). Particulars: Human immunodeficiency virus 1, Vero. The format is functional.
The target of assay [21] is E3 ubiquitin-protein ligase Mdm2 (Homo sapiens, UniProt Q00987). In words: enhancers of MDM2-luciferase reporter signal, concentration-effect titration, project on inhibitors of MDM2 ubiquitin ligase, cellular assay, luminescent readout, 384-well plate format (AID 1394).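 Note: MDM2 E3 inhibitors raise luminescence so EC50 is for signal enhancement.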 The format is functional.
Chain of E3 ubiquitin-protein ligase Mdm2 (Q00987 whole entry): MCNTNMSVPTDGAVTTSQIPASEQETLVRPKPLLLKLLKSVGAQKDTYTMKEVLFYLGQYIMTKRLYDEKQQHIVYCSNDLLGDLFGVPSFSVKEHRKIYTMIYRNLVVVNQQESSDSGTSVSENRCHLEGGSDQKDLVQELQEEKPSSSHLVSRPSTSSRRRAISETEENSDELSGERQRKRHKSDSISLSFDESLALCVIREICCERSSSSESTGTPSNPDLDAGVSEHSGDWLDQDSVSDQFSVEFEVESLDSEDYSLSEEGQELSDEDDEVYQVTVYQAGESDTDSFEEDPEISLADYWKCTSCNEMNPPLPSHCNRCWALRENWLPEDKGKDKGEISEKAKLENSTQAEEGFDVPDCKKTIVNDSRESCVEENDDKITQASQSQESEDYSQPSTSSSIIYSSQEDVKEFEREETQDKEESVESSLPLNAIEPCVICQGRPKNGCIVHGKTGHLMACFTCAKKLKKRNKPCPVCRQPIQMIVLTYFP

T6 sequence (P11940 whole entry): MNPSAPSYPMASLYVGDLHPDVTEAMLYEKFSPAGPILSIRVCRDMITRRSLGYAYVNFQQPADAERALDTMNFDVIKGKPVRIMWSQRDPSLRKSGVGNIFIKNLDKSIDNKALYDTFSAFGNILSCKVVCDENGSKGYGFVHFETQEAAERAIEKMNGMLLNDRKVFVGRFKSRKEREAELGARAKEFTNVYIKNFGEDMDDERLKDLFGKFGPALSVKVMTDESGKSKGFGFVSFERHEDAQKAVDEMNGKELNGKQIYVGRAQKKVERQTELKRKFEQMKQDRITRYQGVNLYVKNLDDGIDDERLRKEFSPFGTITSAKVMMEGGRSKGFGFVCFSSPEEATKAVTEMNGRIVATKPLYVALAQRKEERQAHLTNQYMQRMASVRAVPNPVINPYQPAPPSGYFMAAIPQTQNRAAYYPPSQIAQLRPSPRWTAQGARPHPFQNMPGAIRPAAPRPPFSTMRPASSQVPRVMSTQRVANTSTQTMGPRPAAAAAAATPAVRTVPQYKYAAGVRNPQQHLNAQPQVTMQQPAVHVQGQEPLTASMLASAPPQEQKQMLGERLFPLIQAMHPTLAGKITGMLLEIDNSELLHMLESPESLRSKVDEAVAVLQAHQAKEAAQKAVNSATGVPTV
T1 sequence (Q92731 whole entry): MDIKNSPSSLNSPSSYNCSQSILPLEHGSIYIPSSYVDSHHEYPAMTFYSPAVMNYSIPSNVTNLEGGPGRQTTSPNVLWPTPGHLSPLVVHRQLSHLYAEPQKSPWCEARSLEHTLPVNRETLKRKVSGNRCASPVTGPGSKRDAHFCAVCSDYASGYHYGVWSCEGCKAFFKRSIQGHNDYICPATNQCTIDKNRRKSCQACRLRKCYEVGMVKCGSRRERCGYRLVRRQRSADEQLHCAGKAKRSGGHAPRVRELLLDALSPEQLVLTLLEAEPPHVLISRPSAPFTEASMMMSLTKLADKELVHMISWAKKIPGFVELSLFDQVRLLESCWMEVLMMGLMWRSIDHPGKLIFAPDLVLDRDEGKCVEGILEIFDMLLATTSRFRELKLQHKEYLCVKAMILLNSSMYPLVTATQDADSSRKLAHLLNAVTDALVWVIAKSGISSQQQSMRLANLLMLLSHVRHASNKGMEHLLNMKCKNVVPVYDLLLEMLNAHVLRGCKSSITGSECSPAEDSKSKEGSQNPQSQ
Chain of NAD-dependent protein deacylase sirtuin-5, mitochondrial (Q9NXA8 whole entry): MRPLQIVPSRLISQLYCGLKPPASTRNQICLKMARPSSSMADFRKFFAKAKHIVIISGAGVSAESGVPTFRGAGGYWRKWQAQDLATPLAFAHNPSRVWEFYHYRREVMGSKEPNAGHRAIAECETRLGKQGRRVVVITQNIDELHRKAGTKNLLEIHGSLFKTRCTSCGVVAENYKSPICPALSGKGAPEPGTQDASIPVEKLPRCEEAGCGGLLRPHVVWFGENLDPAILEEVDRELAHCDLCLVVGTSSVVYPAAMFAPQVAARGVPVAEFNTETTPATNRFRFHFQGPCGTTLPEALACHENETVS
Chain of Kallikrein-7 (P49862 whole entry): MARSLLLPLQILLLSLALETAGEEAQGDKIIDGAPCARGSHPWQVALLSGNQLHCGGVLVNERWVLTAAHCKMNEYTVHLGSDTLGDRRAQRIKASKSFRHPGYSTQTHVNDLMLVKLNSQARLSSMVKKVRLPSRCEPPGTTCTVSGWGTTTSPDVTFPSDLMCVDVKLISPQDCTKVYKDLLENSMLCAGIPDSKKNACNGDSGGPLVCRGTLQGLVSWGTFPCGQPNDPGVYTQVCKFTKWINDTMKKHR
Chain of Ubiquitin carboxyl-terminal hydrolase BAP1 (Q92560 whole entry): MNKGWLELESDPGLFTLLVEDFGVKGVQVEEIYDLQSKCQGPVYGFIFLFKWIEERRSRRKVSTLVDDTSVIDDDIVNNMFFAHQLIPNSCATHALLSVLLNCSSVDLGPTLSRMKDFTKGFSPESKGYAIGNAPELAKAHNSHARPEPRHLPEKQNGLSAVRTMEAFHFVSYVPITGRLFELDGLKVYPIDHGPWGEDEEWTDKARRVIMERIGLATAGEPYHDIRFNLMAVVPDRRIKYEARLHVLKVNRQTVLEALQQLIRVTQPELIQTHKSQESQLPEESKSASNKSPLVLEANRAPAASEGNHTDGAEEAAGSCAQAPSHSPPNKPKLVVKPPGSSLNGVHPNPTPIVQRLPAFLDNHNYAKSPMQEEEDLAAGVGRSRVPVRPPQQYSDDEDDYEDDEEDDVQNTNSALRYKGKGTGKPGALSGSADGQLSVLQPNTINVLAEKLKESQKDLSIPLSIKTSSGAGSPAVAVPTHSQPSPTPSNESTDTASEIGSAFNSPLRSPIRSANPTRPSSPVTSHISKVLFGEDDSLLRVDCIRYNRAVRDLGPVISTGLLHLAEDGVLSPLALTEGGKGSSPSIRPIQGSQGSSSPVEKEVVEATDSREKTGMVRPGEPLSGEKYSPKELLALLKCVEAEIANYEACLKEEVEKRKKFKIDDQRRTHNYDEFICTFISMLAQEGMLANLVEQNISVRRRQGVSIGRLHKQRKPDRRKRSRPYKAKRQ
Chain of Large T antigen (P03070 whole entry): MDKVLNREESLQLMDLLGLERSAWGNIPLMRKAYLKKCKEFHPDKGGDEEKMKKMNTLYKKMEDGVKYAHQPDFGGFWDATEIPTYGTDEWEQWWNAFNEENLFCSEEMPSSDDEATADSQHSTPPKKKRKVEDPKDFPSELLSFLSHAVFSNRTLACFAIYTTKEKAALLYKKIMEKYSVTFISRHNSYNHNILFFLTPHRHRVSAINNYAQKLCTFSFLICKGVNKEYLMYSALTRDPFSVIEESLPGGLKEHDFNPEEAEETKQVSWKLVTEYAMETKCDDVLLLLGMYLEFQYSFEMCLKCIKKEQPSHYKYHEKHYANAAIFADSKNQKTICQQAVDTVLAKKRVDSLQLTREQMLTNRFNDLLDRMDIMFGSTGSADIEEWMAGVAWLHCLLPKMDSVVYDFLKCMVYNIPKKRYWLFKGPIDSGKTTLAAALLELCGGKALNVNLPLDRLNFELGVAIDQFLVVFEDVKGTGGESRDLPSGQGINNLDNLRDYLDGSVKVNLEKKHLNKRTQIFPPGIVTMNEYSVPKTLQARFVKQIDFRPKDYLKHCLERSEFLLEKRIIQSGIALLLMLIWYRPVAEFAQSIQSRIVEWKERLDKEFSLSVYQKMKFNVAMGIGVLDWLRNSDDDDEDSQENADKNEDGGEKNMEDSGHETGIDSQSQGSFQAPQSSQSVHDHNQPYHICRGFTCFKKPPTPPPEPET
Chain of Glutathione-S-transferase (Q26513 whole entry): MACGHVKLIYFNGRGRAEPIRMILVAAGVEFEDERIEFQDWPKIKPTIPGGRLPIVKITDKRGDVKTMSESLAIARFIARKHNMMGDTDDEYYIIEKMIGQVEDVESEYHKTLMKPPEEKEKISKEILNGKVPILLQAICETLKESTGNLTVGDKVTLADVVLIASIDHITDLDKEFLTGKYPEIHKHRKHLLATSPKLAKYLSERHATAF
Chain of Genome polyprotein (P29990 2492-3391 limits assumed): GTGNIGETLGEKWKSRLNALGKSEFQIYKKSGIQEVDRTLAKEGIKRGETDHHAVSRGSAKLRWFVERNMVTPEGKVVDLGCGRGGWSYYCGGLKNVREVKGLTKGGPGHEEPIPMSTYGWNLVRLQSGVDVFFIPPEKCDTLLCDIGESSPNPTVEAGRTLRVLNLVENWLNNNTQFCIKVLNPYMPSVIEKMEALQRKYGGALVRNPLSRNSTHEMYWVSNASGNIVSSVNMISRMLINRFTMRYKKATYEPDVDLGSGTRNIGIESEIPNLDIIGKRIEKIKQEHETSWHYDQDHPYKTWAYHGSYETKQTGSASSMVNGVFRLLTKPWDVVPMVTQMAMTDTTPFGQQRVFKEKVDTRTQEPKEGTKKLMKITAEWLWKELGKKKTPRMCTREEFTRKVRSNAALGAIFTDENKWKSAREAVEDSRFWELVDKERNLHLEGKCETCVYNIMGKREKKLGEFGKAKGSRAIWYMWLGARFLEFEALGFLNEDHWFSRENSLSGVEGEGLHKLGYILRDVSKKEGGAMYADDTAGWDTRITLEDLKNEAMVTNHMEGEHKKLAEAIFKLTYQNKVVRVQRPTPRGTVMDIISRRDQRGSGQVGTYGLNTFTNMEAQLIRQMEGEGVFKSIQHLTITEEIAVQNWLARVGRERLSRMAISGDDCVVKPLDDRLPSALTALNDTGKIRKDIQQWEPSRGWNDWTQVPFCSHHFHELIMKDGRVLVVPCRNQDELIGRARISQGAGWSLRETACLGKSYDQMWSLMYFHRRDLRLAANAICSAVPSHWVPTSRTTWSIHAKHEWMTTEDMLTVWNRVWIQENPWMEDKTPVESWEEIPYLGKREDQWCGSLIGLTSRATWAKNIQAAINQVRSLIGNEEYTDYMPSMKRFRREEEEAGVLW

In the case of `Nc1nn(S(=O)(=O)c2cccc3nsnc23)cc1-c1ccc(Br)cc1`, in [1], the IC50 is recorded as > 50 µM (not active).
Take `O=C(Cc1nnc(NC(=O)Nc2ccc(Cl)cc2)s1)NCc1ccccc1`: the AC50 in assay [2] is > 30 µM (inactive).
With `COc1ccc(NC(=O)c2cc(-c3ccco3)on2)cc1OC`, the EC50 in [3] was 13.1 µM (inactive).
Regarding `CC(C)COC(=O)c1nnsc1NC(=O)Nc1ccccc1`, the IC50 in [4] is reported as > 50 µM (not active).
In the case of `O=C1CC(c2ccco2)Cc2nc(Nc3nc(-c4ccccc4)c4ccccc4n3)ncc21` (stereo unspecified), the IC50 in [5] is 10.9 µM (active); in assay [6], > 20 µM (inactive).
Consider `O=c1oc2c3c4c(cc2s1)CCCN4CCC3`, for which the results for the EC50 in assay [7] and in [9] were 28.1 µM (active) and 24.1 µM (inconclusive), respectively. The IC50 in assay [8] was 10.4 µM (active); in [10], 17.9 µM (active); in [11], > 50 µM (not active); in assay [12], 86.7 µM (active); in assay [13] it was > 66 µM (inactive); in assay [14], 48 µM (inactive). For the same compound, the IC50 in assay [15] is 66.2 µM (active).
Take `O=C(Nc1nnc(C2CC2)o1)c1ccc(S(=O)(=O)N2CCCc3ccccc32)cc1`: the EC50 in assay [16] was 2.46 µM (active); in assay [17] it was 1.4 µM (active); in [18], 5.11 µM (active); in [19], 4 µM (active). Moreover, the CC50 in [20] is 15.1 µM (active).
In the case of `COc1ccc(C(=O)NCCSC2CCCCC2)cc1`, the EC50 in [21] is 13.6 µM (not active).

What is called AC50 is the concentration giving half of the maximal activity seen. For orientation: EC50 means the concentration giving half of the maximal effect. One may read the CC50 as the concentration giving 50% cytotoxicity.
